The structures appear in SMILES notation.

As a reminder, the Kd is the constant that tells how readily two partners part at equilibrium.

The target of this test is T1, BldD (Saccharopolyspora erythraea, UniProt A4FBF9).
T1 sequence (A4FBF9 1-162): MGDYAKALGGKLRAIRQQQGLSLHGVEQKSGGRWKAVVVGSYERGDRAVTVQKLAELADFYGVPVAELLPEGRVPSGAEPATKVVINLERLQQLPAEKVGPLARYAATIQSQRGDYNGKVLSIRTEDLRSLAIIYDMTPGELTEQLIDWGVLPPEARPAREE
Kind of test: isothermal titration calorimetry. Type of test: binding.

With `Nc1nc2c(ncn2[C@@H]2O[C@@H]3CO[P@](=O)(O)O[C@H]4[C@@H](O)[C@H](n5cnc6c(=O)[nH]c(N)nc65)O[C@@H]4CO[P@](=O)(O)O[C@H]3[C@H]2O)c(=O)[nH]1` [c-di-GMP], the Kd came to 570 nM.
